# *1 amine or outer side, *2 acyl side, *3 side chain or, on linkers, in order; H or OH if unused. Where a SMILES comes first, the peptide text is derived from it. Bridges are numbered along the chain shown (N, C = ends). [ ]: non-standard residue; d: D form. The star is where a group is joined. Orn(4R-OH,5R-OH) = O=C([C@H](C[C@@H](O)[C@@H](O)N[*:3])N[*:1])[*:2]; Tetradecanoyl(10R,12S-Me2) = CC[C@H](C)C[C@H](C)CCCCCCCCC(=O)*; hTyr(3S-OH,4S-OH) = N[C@H](C(=O)O)[C@H](O)[C@@H](O)c1ccc(O)cc1; Gln(3R-OH) = NC(=O)C[C@@H](O)[C@H](N)C(=O)O; Pro(3S-OH) = O=C(O)[C@H]1NCC[C@@H]1O; Hyp = O=C(O)[C@@H]1C[C@@H](O)CN1
# Columns and labels:
# [1] = biological target: T1, UDP-N-acetylglucosamine--N-acetylmuramyl-(pentapeptide) pyrophosphoryl-undecaprenol N-acetylglucosamine transferase (Escherichia coli (strain K12)) (UniProt P17443); experiment: Inhibition of Escherichia coli MurG at 2.5 microg/ml
# T1 sequence (whole entry): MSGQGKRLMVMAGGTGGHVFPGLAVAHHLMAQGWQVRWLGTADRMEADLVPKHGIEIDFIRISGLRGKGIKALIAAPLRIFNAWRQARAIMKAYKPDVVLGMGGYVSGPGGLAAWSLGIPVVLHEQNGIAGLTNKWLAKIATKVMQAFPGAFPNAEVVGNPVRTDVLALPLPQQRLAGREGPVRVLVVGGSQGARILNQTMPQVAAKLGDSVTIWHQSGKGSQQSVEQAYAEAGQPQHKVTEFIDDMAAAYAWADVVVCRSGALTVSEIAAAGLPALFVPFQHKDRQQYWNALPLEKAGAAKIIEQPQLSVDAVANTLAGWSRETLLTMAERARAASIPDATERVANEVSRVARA
# [2] = Inhibition of candida albicans beta-(1,3)-glucan synthase assessed as decrease in transfer of radiolabelled glucose from UDP-[3H]-glucose onto acceptor
# Trypanosoma brucei = experiment: Inhibition of Trypanosoma brucei DPMS at 1 mM
# [3] = biological target: T2, Ceramide glucosyltransferase (Homo sapiens) (UniProt Q16739); experiment: Inhibition of glucosylceramide synthase (unknown origin) at 5 uM
# T2 sequence (whole entry): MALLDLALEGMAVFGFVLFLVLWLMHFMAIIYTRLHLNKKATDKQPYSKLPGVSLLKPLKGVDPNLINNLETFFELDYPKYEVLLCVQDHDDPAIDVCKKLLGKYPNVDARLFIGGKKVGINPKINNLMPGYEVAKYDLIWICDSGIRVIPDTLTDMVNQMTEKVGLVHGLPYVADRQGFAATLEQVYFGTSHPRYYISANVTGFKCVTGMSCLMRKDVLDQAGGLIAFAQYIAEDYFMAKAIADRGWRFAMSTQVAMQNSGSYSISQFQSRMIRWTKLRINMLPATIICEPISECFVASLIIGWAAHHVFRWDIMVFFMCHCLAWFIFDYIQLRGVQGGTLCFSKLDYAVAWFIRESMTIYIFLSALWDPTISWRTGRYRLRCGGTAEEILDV
# [4] = Inhibition of MraY (unknown origin)
# [5] = biological target: T3, UDP-N-acetylglucosamine--peptide N-acetylglucosaminyltransferase 110 kDa subunit (Homo sapiens) (UniProt O15294); experiment: Inhibition of OGT (unknown origin); details: concentration not given here
# T3 sequence (whole entry): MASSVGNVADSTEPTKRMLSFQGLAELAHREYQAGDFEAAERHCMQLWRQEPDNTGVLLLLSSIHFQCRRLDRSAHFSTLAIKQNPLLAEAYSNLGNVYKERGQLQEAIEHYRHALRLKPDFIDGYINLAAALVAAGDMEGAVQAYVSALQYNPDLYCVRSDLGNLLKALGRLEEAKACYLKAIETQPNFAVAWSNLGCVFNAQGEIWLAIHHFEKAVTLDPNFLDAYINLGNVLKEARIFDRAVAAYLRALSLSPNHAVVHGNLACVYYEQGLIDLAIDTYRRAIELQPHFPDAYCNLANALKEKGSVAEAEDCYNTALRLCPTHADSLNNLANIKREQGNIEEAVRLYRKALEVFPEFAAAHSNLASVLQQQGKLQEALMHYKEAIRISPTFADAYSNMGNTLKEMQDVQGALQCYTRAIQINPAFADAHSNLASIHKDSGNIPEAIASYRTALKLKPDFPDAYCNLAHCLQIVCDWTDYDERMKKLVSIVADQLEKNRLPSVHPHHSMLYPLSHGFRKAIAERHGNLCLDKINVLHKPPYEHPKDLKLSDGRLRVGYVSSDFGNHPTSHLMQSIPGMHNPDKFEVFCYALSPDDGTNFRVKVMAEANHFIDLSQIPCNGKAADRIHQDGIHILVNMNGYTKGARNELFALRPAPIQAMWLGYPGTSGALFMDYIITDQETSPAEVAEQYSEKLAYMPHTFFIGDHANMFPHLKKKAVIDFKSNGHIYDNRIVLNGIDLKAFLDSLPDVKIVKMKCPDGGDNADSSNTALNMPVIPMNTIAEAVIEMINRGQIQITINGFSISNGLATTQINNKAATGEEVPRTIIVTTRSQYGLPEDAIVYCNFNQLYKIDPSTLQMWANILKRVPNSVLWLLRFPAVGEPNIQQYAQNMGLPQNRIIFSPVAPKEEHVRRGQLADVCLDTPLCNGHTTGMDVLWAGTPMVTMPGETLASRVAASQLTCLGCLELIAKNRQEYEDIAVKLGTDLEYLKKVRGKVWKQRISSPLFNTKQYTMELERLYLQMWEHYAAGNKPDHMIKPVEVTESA
# Streptococcus mutans = experiment: Inhibition of Streptococcus mutans sucrose-6-glucosyltransferase at 50 uM
# [6] = biological target: T4, Phospho-N-acetylmuramoyl-pentapeptide-transferase/UDP-N-acetylglucosamine--N-acetylmuramyl-(pentapeptide) pyrophosphoryl-undecaprenol N-acetylglucosamine transf (Escherichia coli K-12, UniProt P0A6W3+P17443); experiment: Inhibition of Escherichia coli MraY/MurG; type: protein assay
# T4 sequence (P0A6W3 whole entry): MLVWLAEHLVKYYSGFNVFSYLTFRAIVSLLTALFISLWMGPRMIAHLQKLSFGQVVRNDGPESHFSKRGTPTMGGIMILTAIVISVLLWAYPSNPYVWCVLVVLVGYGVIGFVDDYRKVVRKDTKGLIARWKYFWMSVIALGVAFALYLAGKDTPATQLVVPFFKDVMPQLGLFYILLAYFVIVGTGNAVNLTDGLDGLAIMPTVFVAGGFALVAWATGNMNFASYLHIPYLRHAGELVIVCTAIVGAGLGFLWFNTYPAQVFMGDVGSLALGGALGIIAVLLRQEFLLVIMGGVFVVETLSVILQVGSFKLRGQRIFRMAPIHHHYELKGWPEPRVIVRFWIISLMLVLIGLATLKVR
# T4 sequence (P17443 whole entry): T1 sequence (whole entry)
# [7] = biological target: T5, CMP-N-acetylneuraminate-beta-galactosamide-alpha-2,3-sialyltransferase 1 (Homo sapiens, UniProt Q11201); experiment: Inhibition of ST3Gal 1 (unknown origin)
# T5 sequence (Q11201 whole entry): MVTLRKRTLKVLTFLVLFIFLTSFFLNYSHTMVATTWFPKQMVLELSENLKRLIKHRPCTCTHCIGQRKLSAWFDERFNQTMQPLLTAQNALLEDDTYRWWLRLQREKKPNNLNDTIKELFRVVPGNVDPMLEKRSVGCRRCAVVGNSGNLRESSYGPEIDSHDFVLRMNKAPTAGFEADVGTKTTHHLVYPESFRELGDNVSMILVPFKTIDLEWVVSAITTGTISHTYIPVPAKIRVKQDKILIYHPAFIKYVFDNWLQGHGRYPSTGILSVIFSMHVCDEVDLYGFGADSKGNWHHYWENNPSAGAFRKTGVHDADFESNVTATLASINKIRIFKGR
smiles,measurement,setting,value
NS(=O)(=O)c1ccc(-c2ccc(/C=C3\C(=O)N(c4cccc(S(N)(=O)=O)c4)N=C3C(F)(F)F)o2)cc1,inhibition,[1],66%
"CC[C@H](C)C[C@H](C)CCCCCCCCC(=O)N[C@H]1C[C@@H](O)[C@@H](O)NC(=O)[C@@H]2[C@@H](O)CCN2C(=O)[C@H]([C@H](O)CC(N)=O)NC(=O)[C@H]([C@H](O)[C@@H](O)c2ccc(O)cc2)NC(=O)[C@@H]2C[C@@H](O)CN2C(=O)[C@H]([C@@H](C)O)NC1=O ({Tetradecanoyl(10R,12S-Me2)}-[Orn(4R-OH,5R-OH)]T[Hyp][hTyr(3S-OH,4S-OH)][Gln(3R-OH)][Pro(3S-OH)]; lactam 1-C)",IC50,[2],0.07 µM
Cc1cc(/C=C2\C(=O)NC(=S)N(c3ccc(Cl)cc3)C2=O)c(C)n1-c1cc(C(=O)O)cc(C(=O)O)c1,inhibition,[1],88%
O=C(O)CN1C(=O)/C(=C\c2ccc(OCc3ccccc3)c(OCc3ccccc3)c2)SC1=S,inhibition,Trypanosoma brucei,80%
CCCCCCCCCC(=O)N[C@H](CN1CCOCC1)[C@H](O)c1ccccc1,inhibition,[3],16%
NC[C@H]1O[C@@H](O[C@H](c2cn(Cc3ccc(COc4ccc(C(=O)c5ccccc5)cc4)cc3)nn2)[C@H]2O[C@@H](n3ccc(=O)[nH]c3=O)[C@H](O)[C@@H]2O)[C@H](O)[C@@H]1O,IC50,[4],50 µM
CCCCCCCCCCCCC/C=C/[C@H](O)[C@H](CN1CCOCC1)NC(=O)CCCCCCCCCCCCCCC,inhibition,[3],5%
CCCCCCCCCCCCCCCC(=O)N[C@H](CN1CCCC1)[C@H](O)c1ccccc1,inhibition,[3],50%
O=C(/C=C/c1cccs1)Nc1scc(-c2ccccc2)c1C(=O)O,inhibition,[5],> 30%
NC[C@H]1O[C@@H](O[C@H](c2cn(CCCCCOc3ccc(C(=O)c4ccccc4)cc3)nn2)[C@H]2O[C@@H](n3ccc(=O)[nH]c3=O)[C@H](O)[C@@H]2O)[C@H](O)[C@@H]1O,IC50,[4],100 µM
NC[C@H]1O[C@@H](O[C@H](c2cn(CCCCCCCCCCOc3ccc(C(=O)c4ccccc4)cc3)nn2)[C@H]2O[C@@H](n3ccc(=O)[nH]c3=O)[C@H](O)[C@@H]2O)[C@H](O)[C@@H]1O,IC50,[4],125 µM
COc1cc(/C=C2\C(=O)N(c3ccc(Cl)c(C(=O)O)c3)N=C2C)cc([N+](=O)[O-])c1O,inhibition,[1],54%
COc1c(N/C=C2\C(=O)N(c3ccccc3C)N=C2C)cc([N+](=O)[O-])cc1[N+](=O)[O-],inhibition,[1],66%
CCOC(=O)C(C(C)C)C(N)Cc1ccc(F)cc1 (configuration not stated),inhibition,[5],> 30%
CC1=NN(c2ccc(Cl)c(C(=O)O)c2)C(=O)/C1=C\c1ccc(-c2ccccc2C(=O)O)o1,inhibition,[1],48%
CCCCCCCC/C=C\CCCCCCCC(=O)O,inhibition,Streptococcus mutans,42.4%
O=C(O)CN1C(=O)/C(=C\c2cccc(OCc3ccccc3)c2)SC1=S,inhibition,Trypanosoma brucei,77%
COC1=C(O)c2c(O)cc(C)c3c(O)cc(O)c(c23)C1=O,IC50,[6],54 µM
CCCCCCCCCCCCC/C=C/[C@@H](O)[C@H](CN1CCOCC1)NC(=O)CCCCCCCCCCCCCCC,inhibition,[3],5%
O=C1N/C(=N/c2ccccc2)S/C1=C/c1cc(Br)cc(Cl)c1O,inhibition,[1],71%
O=C(O)c1ccc2scnc2c1,inhibition,[5],> 30%
CCOC(=O)c1ccccc1-c1c2cc(Br)c(=O)c(Br)c-2oc2c(Br)c(O)c(Br)cc12,IC50,[6],18.4 µM
CCCCCCCCCCCCC/C=C/[C@@H](O)[C@@H](CN1CCCC1)NC(=O)CCCCCCCCCCCCCCC,inhibition,[3],87%
O=C1OC2(c3cc(I)c(O)cc3Oc3cc(O)c(I)cc32)c2ccccc21,IC50,[6],166 µM
CCCCCCCC/C=C\CCCCCCCC(=O)OC,inhibition,Streptococcus mutans,16.8%
CCCCCCCCCCCCC/C=C/[C@H](O)[C@@H](CN1CCOCC1)NC(=O)CCCCCCCCCCCCCCC,inhibition,[3],5%
C[C@H](CCCn1cc(CCCC(=O)O)nn1)[C@H]1CC[C@H]2[C@@H]3CC[C@@H]4C[C@H](O)CC[C@]4(C)[C@H]3CC[C@]12C,IC50,[7],5 µM
same,Ki,[7],2.2 µM
CCCCCCCC/C(I)=C(/I)CCCCCCCC(=O)OCC(COC(=O)CCCCCCC/C(I)=C(/I)CCCCCCCC)OC(=O)CCCCCCC/C(I)=C(/I)CCCCCCCC,inhibition,Streptococcus mutans,26.3%
COc1cc(/C=C2\C(=O)NC(=O)N(c3ccc(C)cc3)C2=O)cc([N+](=O)[O-])c1O,inhibition,[1],72%
CCCCCCCCCCCCCCCC(=O)N[C@H](CN1CCOCC1)[C@H](O)c1ccccc1,inhibition,[3],32%
O=C(CN1C(=O)S/C(=C/c2ccc(Cl)cc2)C1=O)Nc1cc([N+](=O)[O-])ccc1O,inhibition,[1],72%
CCCCCCCCCCCCC/C=C/[C@@H](O)[C@@H](CN1CCOCC1)NC(=O)CCCCCCCCCCCCCCC,inhibition,[3],73%
CC[C@H](C)C[C@H](C)CCCCCCCCC(=O)N[C@H]1C[C@@H](O)[C@@H](OCCN)NC(=O)[C@@H]2[C@@H](O)CCN2C(=O)[C@H]([C@H](O)CCN)NC(=O)[C@H]([C@H](O)[C@@H](O)c2ccc(O)cc2)NC(=O)[C@@H]2C[C@@H](O)CN2C(=O)[C@H]([C@@H](C)O)NC1=O,IC50,[2],0.001 µM
NC[C@H]1O[C@@H](O[C@H](c2cn(CCCOc3ccc(C(=O)c4ccccc4)cc3)nn2)[C@H]2O[C@@H](n3ccc(=O)[nH]c3=O)[C@H](O)[C@@H]2O)[C@H](O)[C@@H]1O,IC50,[4],100 µM
O=C(O)CN1C(=O)/C(=C\c2ccccc2O)SC1=S,inhibition,Trypanosoma brucei,77%
C[C@H](CCC(=O)O)[C@H]1CC[C@H]2[C@@H]3CC[C@@H]4C[C@H](O)CC[C@]4(C)[C@H]3CC[C@]12C [LITHOCHOLIC ACID],IC50,[7],21 µM

# — ChEMBL document CHEMBL3596159, “Beyond substrate analogues: new inhibitor chemotypes for glycosyltransferases” (Medchemcomm, 2014)
